Source: PMC9268102, “Design, Synthesis and Biological Evaluation of 1,3,5-Triazine Derivatives Targeting hA1 and hA3 Adenosine Receptor” (Molecules, 2022)
“And” between values parts separate entries of the source, which are not always exact repeats. Identical values can stand only once. Like-named read-outs stand apart in the source and are kept apart here.

Legend:
hA1 AR [1] = target: T1, hA1 AR (Homo sapiens, UniProt P30542); assay: Radioligand competition binding assay at hA1 AR; settings: for inhibition at 10 µM / Percentage Inhibition (%) at 10 μM, hA1 AR: 10 μM compound; for inhibition at 10 µM / Ki / Percentage Inhibition (%) at 10 μM, hA1 AR: [3H]DPCPX, CHO cells; for inhibition at 10 µM: read-out: Percentage Inhibition (%) at 10 μM, hA1 AR
T1 construct: host or cells: CHO-A1 (CHO cells expressing hA1 AR)
T1 sequence (P30542 1-326): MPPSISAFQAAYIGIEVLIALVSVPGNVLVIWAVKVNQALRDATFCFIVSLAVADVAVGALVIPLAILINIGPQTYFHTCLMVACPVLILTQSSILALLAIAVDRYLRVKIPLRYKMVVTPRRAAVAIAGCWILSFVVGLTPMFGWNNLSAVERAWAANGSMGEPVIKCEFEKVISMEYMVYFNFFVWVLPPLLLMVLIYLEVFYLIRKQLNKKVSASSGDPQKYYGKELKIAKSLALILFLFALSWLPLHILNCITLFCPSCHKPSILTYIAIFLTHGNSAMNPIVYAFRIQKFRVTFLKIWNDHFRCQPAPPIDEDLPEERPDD
Protocol: (§1) All the synthesized compounds were screened with radioligand binding assays at hARs. First, the percentage of inhibition was measured by treatment of each hAR subtype with 10 μM of each compound (Table 1).
(§2) hA1, hA2A, and hA3 AR competition binding experiments were carried out in a multiscreen GF/C 96-well plate (Millipore, Madrid, Spain) pretreated with binding buffer (Hepes 20 mM, NaCl 100 mM, MgCl2 10 mM, 2 U/mL adenosine deaminase, pH = 7.4 for hA1 AR; Tris-HCl 50 mM, EDTA 1 mM, MgCl2 10 mM, 2 U/mL adenosine deaminase, pH = 7.4 for hA2A AR; and Tris-HCl 50 mM, EDTA 1 mM, MgCl2 5 mM, 2 U/mL adenosine deaminase, pH = 7.4 for hA3 AR, respectively). In each well was incubated 5 µg of membranes from Euroscreen CHO-A1 cell line, 5µg of membranes from Hela-A2A cell line, or 30µg of membranes from Hela-A3 cell line and prepared in laboratory: 1 nM [^3H]-DPCPX (140 Ci/mmol, 1 mCi/Ml, Perkin Elmer NET974001MC) for hA1 AR; 1 nM [^3H]-ZM241385 (50 Ci/mmol, 1 mCi/mL, ARC-ITISA 0884) for hA2A AR; and 10 nM [^3H]-NECA (29.6 Ci/mmol, 1 mCi/mL, Perkin Elmer NET811250UC) for hA3 AR, respectively; and the compounds studied according to standard protocol. Non-specific binding was determined in the presence of R-PIA 10 µM (Sigma P4532) for hA1 AR; of NECA 50 µM (Sigma E2387) for hA2A AR; and of R-PIA 100 µM (Sigma P4532) for hA3 AR, respectively. The reaction mixture (Vt: 200 µL/well) was incubated at 25 °C for 60 min (hA1 AR), 30min (hA2A AR), or 180min (hA3 AR); whereafter it was filtered and washed four times (hA1 and hA2A AR) or six times (hA3 AR) with 250 μL wash buffer (Hepes 20 mM, NaCl 100 mM, MgCl2 10 mM pH = 7.4, for hA1 AR; Tris-HCl 50 mM, EDTA 1 mM, MgCl2 10 mM, pH = 7.4, for hA2A AR; and Tris-HCl 50mM pH = 7.4, for hA3 AR, respectively) before being measured in a microplate beta scintillation counter (MicrobetaTrilux, PerkinElmer, Madrid, Spain).

hA2A AR [2] = target: T2, hA2A AR (Homo sapiens, UniProt P29274); assay: Radioligand competition binding assay at hA2A AR; settings: 10 μM compound, [3H]ZM241385, Hela cells; for inhibition at 10 µM: read-out: Percentage Inhibition (%) at 10 μM, hA2A AR
T2 construct: expressed in transfected cells; host or cells: Hela-A2A cell line
Protocol: as §1, §2

hA2B AR = target: T3, hA2B AR (Homo sapiens, UniProt P29275); assay: Radioligand competition binding assay at hA2B AR; settings: 10 μM compound; [3H]DPCPX; HEK-293 cells; read-out: Percentage Inhibition (%) at 10 μM, hA2B AR
T3 construct: host or cells: HEK-A2B (HEK-293T-A2B) cell line
T3 sequence (P29275 1-332): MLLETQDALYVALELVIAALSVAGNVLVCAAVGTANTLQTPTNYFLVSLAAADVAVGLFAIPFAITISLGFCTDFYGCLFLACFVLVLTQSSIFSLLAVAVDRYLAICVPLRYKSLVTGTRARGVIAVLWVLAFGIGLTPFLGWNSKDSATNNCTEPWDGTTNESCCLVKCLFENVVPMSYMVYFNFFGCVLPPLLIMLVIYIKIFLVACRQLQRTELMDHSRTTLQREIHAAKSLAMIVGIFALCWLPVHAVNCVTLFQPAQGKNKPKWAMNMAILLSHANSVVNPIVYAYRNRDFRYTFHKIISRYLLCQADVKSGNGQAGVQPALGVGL
Protocol: as §1
hA2B AR competition binding experiments were carried out in a multiscreen GF/C 96-well plate. In each well was incubated 25 µg of membranes from Euroscreen HEK-A2B cell line and prepared in laboratory, 25 nM [^3H]-DPCPX (140 Ci/mmol, 1 mCi/mL, Perkin Elmer NET974001MC) and compounds studied according to standard protocol. Non-specific binding was determined in the presence of NECA 1000 µM (Sigma E2397). The reaction mixture (Vt: 250 µL/well) was incubated at 25°C for 30 min, 200 µL was transferred to GF/C 96-well plate (Millipore, Madrid, Spain), and pretreated with binding buffer (Tris-HCl 50 Mm, EDTA 1 mM, MgCl2 5 mM, Bacitracin […], adenosine deaminase 2 U/Ml, pH = 6.5). It was then filtered and washed four times with 250 μL wash buffer (Tris-HCl 50 mM, EDTA 1 mM, MgCl2 5 mM, pH = 6.5), before being measured in a microplate beta scintillation counter (MicrobetaTrilux, PerkinElmer, Madrid, Spain).

hA3 AR = target: T4, hA3 AR (Homo sapiens, UniProt P0DMS8); assay: Radioligand competition binding assay at hA3 AR; design: expressed in transfected cells; host or cells: Hela-A3 cell line; settings: [3H]NECA; for Percentage Inhibition (%) at 10 μM, hA3 AR / inhibition at 10 µM: 10 μM compound; for inhibition at 10 µM: read-out: Percentage Inhibition (%) at 10 μM, hA3 AR
T4 sequence (P0DMS8 1-318): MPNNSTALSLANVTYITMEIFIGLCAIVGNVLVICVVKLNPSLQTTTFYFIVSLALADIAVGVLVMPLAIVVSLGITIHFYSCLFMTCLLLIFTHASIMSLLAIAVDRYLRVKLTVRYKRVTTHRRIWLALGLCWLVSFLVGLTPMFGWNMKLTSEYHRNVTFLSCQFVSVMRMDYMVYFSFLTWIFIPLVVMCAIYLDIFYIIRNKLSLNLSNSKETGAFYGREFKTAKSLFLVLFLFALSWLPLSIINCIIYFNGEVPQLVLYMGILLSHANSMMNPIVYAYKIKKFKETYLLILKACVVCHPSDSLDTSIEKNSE
Protocol: as §1, §2

hA1 AR [3] = target: T1, hA1 AR; settings: read-out: Ki at hA1AR; cited from earlier work
hA2A AR [4] = target: T2, hA2A AR; settings: cited from earlier work

T2 sequence (P29274 whole entry): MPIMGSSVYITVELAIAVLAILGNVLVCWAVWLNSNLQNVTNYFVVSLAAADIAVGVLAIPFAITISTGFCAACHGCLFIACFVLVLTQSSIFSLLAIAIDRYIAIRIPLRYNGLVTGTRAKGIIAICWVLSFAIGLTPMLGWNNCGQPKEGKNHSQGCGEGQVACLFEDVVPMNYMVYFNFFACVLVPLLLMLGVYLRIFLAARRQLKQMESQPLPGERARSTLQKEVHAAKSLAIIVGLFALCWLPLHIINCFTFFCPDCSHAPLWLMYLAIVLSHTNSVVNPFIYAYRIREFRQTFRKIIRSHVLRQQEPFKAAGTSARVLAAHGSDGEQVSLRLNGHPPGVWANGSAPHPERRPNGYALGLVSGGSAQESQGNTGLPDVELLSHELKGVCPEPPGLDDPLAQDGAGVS

Structure (SMILES) | inhibition at 10 µM (hA1 AR [1]) [%] | Ki (hA1 AR [1]) [nM] | Selectivity (hA1 AR:hA3 AR) (hA1 AR [1]; ratio of Ki hA1 AR to Ki hA3 AR) | Percentage Inhibition (%) at 10 μM, hA2A AR (hA2A AR [2]; 10 µM) [%] | inhibition at 10 µM (hA2A AR [2]) [%] | inhibition at 10 µM (hA2B AR) [%] | Percentage Inhibition (%) at 10 μM, hA3 AR (hA3 AR) [%] | inhibition at 10 µM (hA3 AR) [%] | Ki (hA3 AR) [nM] | Percentage Inhibition (%) at 10 μM, hA1 AR (hA1 AR [1]; 10 µM) [%] | Ki (hA1 AR [3]) [nM] | Selectivity hA1/hA2AAR (hA2A AR [4]) | Ki (hA2A AR [4]; read-out: Ki at hA2AAR) [nM] | Percentage Inhibition (%) at 10 μM, hA1 AR (hA1 AR [1])
COc1ccc(Nc2nc(N)nc(-c3ccc(O)cc3)n2)cc1F [Compound 9a, 4-{4-amino-6-[(3-fluoro-4-methoxyphenyl)amino]-1,3,5-triazin-2-yl}phenol] | 99 ± 1 | 139 | 2.5 and 2.51 | 56 ± 3 | 58 ± 1 | 72 ± 2 | 97 ± 1 | > 95 | 55.5 |  |  |  |  | 
Cc1cc(C)cc(Nc2nc(N)nc(-c3ccc(O)cc3)n2)c1 [Compound 9e, 4-{4-amino-6-[(3,5-dimethylphenyl)amino]-1,3,5-triazin-2-yl}phenol] | > 95 | 872 |  |  | 58 ± 3 | 42 ± 2 |  | 92 ± 1 |  | 96 ± 3 |  |  |  | 
COc1cc(Cl)ccc1Nc1nc(N)nc(-c2oc3ccccc3c2C)n1 [Compound 4] |  |  |  |  |  |  |  |  |  |  | 1440 | 2.94 | 490 | 
COc1cc(Nc2nc(N)nc(-c3ccc(O)cc3)n2)cc(OC)c1 [Compound 9b, 4-{4-amino-6-[(3,5-dimethoxyphenyl)amino]-1,3,5-triazin-2-yl}phenol] | 99 ± 1 | 69.7 |  |  | 84 ± 4 | 62 ± 2 |  | 93 ± 1 |  |  |  |  |  | 
COc1ccc(Nc2nc(N)nc(-c3ccc(F)c([N+](=O)[O-])c3)n2)cc1F [Compound 11i, 6-(4-fluoro-3-nitrophenyl)-N^2-(3-fluoro-4-methoxyphenyl)-1,3,5-triazine-2,4-diamine] | 53 ± 1 |  |  |  | 57 ± 2 | 72 ± 6 |  | 83 ± 1 |  |  |  |  |  | inactive
Cc1ccc(Nc2nc(N)nc(-c3ccc(O)cc3)n2)c(C)c1 [Compound 9g, 4-{4-amino-6-[(2,4-dimethylphenyl)amino]-1,3,5-triazin-2-yl}phenol] | > 95 | 116 |  |  | 80 ± 4 | 47 ± 2 |  | 91 ± 1 |  | 99 ± 1 |  |  |  | 
CCOC(=O)c1ccc(-c2nc(N)nc(Nc3ccc(OC)c(F)c3)n2)cc1 [Compound 11g, ethyl-4-{4-amino-6-[(3-fluoro-4-methoxyphenyl)amino]-1,3,5-triazin-2-yl}benzoate] | 56 ± 1 |  |  |  | 48 ± 6 | 35 ± 2 |  | 78 ± 3 |  |  |  |  |  | 
COC(=O)c1ccc(-c2nc(N)nc(Nc3ccc(OC)c(F)c3)n2)cc1 [Compound 11f, methyl-4-{4-amino-6-[(3-fluoro-4-methoxyphenyl)amino]-1,3,5-triazin-2-yl}benzoate] | 52 ± 1 |  |  |  | 35 ± 6 | 55 ± 2 |  | 85 ± 1 |  |  |  |  |  | 
Nc1nc(Nc2cccc(C(F)(F)F)c2)nc(-c2ccc(O)cc2)n1 [Compound 9d, 4-(4-amino-6-{[3-(trifluoromethyl)phenyl]amino}-1,3,5-triazin-2-yl)phenol] | 69 ± 2 |  |  |  | 40 ± 5 | 74 ± 1 | 95 ± 1 | > 95 | 1260 |  |  |  |  | 
COc1ccc(Nc2nc(N)nc(-c3ccc(C(F)(F)F)cc3)n2)cc1F [Compound 11d, N^2-(3-fluoro-4-methoxyphenyl)-6-[4-(trifluoromethyl)phenyl]-1,3,5-triazine-2,4-diamine] | 74 ± 1 |  |  |  | 30 ± 1 | 93 ± 3 |  | 79 ± 1 |  |  |  |  |  | 
Nc1nc(Nc2ccc(N3CCCCC3)cc2)nc(-c2ccc(O)cc2)n1 [Compound 9f, 4-(4-amino-6-{[4-(piperidin-1-yl)phenyl]amino}-1,3,5-triazin-2-yl)phenol] | 28 ± 1 |  |  |  | 28 ± 3 | 44 ± 4 |  | 38 ± 1 |  |  |  |  |  | 
COc1ccc(Nc2nc(N)nc(-c3ccc(C#N)cc3)n2)cc1F [Compound 11e, 4-{4-amino-6-[(3-fluoro-4-methoxyphenyl)amino]-1,3,5-triazin-2-yl}benzonitrile] | 45 ± 5 |  |  |  | 50 ± 2 | 52 ± 1 |  | 72 ± 3 |  |  |  |  |  | 
COc1ccc(Nc2nc(N)nc(-c3cc(F)c(O)c(F)c3)n2)cc1F [Compound 11h, 4-{4-amino-6-[(3-fluoro-4-methoxyphenyl)amino]-1,3,5-triazin-2-yl}-2,6-difluorophenol] | 88 ± 1 |  |  |  | 26 ± 5 | 66 ± 6 |  | 79 ± 1 |  |  |  |  |  | inactive
COc1ccc(Nc2nc(N)nc(-c3ccc(OC(F)(F)F)cc3)n2)cc1F [Compound 11c, N^2-(3-fluoro-4-methoxyphenyl)-6-[4-(trifluoromethoxy)phenyl]-1,3,5-triazine-2,4-diamine] | 48 ± 4 |  |  |  | 81 ± 1 | 27 ± 6 |  | 60 ± 1 |  |  |  |  |  | 
